biological target: human TRPM8 (Homo sapiens (Human), UniProt Q7Z2W7); experiment: TRPM8 inhibition assay (menthol-induced calcium influx, FDSS); assay type: cell-based; details: HEK293 cells stably expressing human TRPM8; 100 μM menthol; Fura-2AM Ca2+ signal; read-out: TRPM8 Blocking Test (IC50)
Protocol: The functional activity of compounds was determined by measuring changes in intracellular calcium concentration using a Ca^2+ sensitive fluorescent dye. The changes in fluorescent signal were monitored by the cell imaging technology by Hamamatsu Photonics's Functional Drug Screening System (FDSS). […] HEK293 cells stably expressing human TRPM8 were grown in flasks. On assay day, the culture medium was removed, and cells were washed with phosphate-buffered saline (PBS) and harvested with PBS containing 2 mM ethylenediaminetetraacetic acid, disodium salt (EDTA, 2Na). […] Subsequently, suspended 20,000 to 50,000 cells per well were incubated with test compound (at varying concentrations) in each well for 20 min at 37° C. Changes in intracellular Ca^2+ evoked by 100 μM menthol were measured for 2 min using FDSS. IC50 vales were determined from four-point concentration-response studies. Curves were generated using the average of quadruplicate wells for each data point.

human TRPM8, sequence (Q7Z2W7 whole entry): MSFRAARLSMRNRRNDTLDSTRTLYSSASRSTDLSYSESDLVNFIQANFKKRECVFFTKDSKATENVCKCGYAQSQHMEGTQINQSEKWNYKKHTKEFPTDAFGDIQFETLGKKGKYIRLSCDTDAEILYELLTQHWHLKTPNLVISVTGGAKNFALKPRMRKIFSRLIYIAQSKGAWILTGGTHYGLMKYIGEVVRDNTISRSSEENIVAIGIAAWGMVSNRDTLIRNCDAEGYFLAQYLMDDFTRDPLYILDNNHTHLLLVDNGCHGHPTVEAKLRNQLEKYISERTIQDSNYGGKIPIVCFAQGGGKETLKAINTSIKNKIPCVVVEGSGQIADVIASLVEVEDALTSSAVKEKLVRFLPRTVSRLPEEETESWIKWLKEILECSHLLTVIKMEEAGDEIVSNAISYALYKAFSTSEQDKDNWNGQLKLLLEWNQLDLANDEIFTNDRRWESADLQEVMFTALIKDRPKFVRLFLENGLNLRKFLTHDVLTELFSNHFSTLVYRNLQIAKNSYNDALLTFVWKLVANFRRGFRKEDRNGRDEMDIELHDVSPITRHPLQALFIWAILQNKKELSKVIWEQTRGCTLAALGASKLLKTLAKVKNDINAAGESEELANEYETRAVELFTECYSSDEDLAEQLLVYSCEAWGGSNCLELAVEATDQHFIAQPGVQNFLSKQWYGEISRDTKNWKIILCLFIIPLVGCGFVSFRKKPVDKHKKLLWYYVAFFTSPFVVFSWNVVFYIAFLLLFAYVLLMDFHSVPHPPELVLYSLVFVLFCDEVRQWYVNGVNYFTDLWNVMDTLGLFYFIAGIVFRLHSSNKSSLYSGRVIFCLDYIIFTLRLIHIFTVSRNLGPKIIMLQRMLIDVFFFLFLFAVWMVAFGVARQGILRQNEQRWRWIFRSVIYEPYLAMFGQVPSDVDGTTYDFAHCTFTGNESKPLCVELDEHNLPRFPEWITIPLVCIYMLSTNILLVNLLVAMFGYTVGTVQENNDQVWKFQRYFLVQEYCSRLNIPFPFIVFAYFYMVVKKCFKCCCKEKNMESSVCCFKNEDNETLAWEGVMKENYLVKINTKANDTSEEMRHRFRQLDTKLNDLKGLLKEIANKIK

For `Cc1c(N(Cc2ccc(OC(F)(F)F)cc2)S(=O)(=O)c2ccc(C(=O)O)cc2)nc(C2CC2)c2c(C)cccc12` [Example 215], which IC50 is on record?
The IC50 was 8.2 nM.

`Cc1c(N(Cc2cc3cccc(Cl)c3s2)S(=O)(=O)c2ccc(C(=O)O)cc2)ncc2ccccc12` [Example 199] was tested. Which IC50 did it give?
Its IC50 is 3.9 nM.

For `O=C(O)c1ccc(S(=O)(=O)N(Cc2ccc(OC(F)(F)F)cc2)c2cc3c(C4CC4)cccc3cn2)cc1` [Example 217], which IC50 is on record?
The IC50 was 239 nM.

Which IC50 does the source give for `COC1(C(F)(F)F)CCc2cc(CN(c3ncc4ccccc4c3C)S(=O)(=O)c3ccc(C(=O)O)cc3)ccc21` (stereo not shown) [Example 223] here?
The IC50 was 3.5 nM.

`Cc1c(N(Cc2ccc(OC3CC3)cc2)S(=O)(=O)c2ccc(C(=O)O)cc2)ncc2ccccc12` [Example 45] was tested. Which IC50 did it give?
The IC50 was 35 nM.

`Cc1c(N(Cc2ccc(OC(F)(F)F)cc2)S(=O)(=O)c2ccc(C(=O)O)cc2)nc(C(F)(F)F)c2ccccc12` [Example 108, 4-({[4-methyl-1-(trifluoromethyl)isoquinolin-3-yl][4-(trifluoromethoxy)benzyl]amino}sulfonyl)benzoic acid] was tested. Which IC50 did it give?
The IC50 was 21 nM.

Which IC50 does the source give for `Cc1c(N(Cc2ccc(OC(F)(F)F)cc2)S(=O)(=O)c2ccc(C(C)(C)O)cc2)ncc2ccccc12` [Example 125, 4-(1-hydroxy-1-methylethyl)-N-(4-methylisoquinolin-3-yl)-N-[4-(trifluoromethoxy)benzyl]benzenesulfonamide] here?
Its IC50 is 62 nM.

`Cc1c(N(Cc2ccc3c(c2)CCC3)S(=O)(=O)c2ccc(C(=O)O)cc2)ncc2ccccc12` [Example 60] was tested. Which IC50 did it give?
Its IC50 is 8.1 nM.

Which IC50 does the source give for `Cc1c(N(Cc2ccc(C3CC3)cc2)S(=O)(=O)c2ccc(C(=O)O)cc2)ncc2ccccc12` [Example 41] here?
The IC50 was 12 nM.

`CC(=O)c1c(N(Cc2ccc(OC(F)(F)F)cc2)S(=O)(=O)c2ccc(C(=O)O)cc2)ncc2ccccc12` [Example 112, 4-({(4-acetylisoquinolin-3-yl)[4-(trifluoromethoxy)benzyl]amino}sulfonyl)benzoic acid] was tested. Which IC50 did it give?
The IC50 was 14 nM.

Which IC50 does the source give for `Cc1c(N(Cc2ccc(C(O)(C(F)(F)F)C(F)(F)F)cc2)S(=O)(=O)c2ccc(C(=O)O)cc2)ncc2ccccc12` [Example 128] here?
Its IC50 is 40 nM.

For `COC(C)(c1ccc(CN(c2ncc3ccccc3c2C)S(=O)(=O)c2ccc(C(=O)O)cc2)cc1)C(F)(F)C(F)(F)F` (stereo not shown) [Example 224], which IC50 is on record?
Its IC50 is 5.9 nM.

Which IC50 does the source give for `O=C(O)c1ccc(S(=O)(=O)N(Cc2ccc(OC(F)(F)F)cc2)c2cc3c(Cl)cccc3cn2)cc1` [Example 102, 4-({(5-chloroisoquinolin-3-yl)[4-(trifluoromethoxy)benzyl]amino}sulfonyl)benzoic acid] here?
Its IC50 is 115 nM.

How did the IC50 turn out when `O=C(O)c1ccc(S(=O)(=O)N(Cc2ccc(OC(F)(F)F)cc2)c2cc3ccccc3c(Br)n2)cc1` [Example 143] was run?
Its IC50 is 131 nM.

For `Cc1cc2ccccc2nc1N(Cc1ccc2c(c1)CCCC2)S(=O)(=O)c1ccc(C(=O)O)cc1` [Example 180], which IC50 is on record?
The IC50 was 6.9 nM.

How did the IC50 turn out when `Cc1c(N(Cc2cc3cc(F)cc(F)c3s2)S(=O)(=O)c2ccc(C(=O)O)cc2)ncc2ccccc12` [Example 195] was run?
The IC50 was 6 nM.

`Cc1c(N(Cc2ccc3c(c2)CC(C)(C)C3)S(=O)(=O)c2ccc(C(=O)O)cc2)ncc2ccccc12` [Example 62] was tested. Which IC50 did it give?
The IC50 was 8.3 nM.

For `Cc1c(N(Cc2ccc(C(F)(F)C3(C)CC3)cc2)S(=O)(=O)c2ccc(C(=O)O)cc2)ncc2ccccc12` [Example 209], which IC50 is on record?
Its IC50 is 1 nM.

`Cc1cc2cccc(Cl)c2nc1N(Cc1ccc(OC(F)(F)F)cc1)S(=O)(=O)c1ccc(C(=O)O)cc1` [Example 133] was tested. Which IC50 did it give?
Its IC50 is 4.3 nM.

With `Cc1ccc2c(C)c(N(Cc3ccc(OC(F)(F)F)cc3)S(=O)(=O)c3ccc(C(=O)O)cc3)ncc2c1` [Example 131] as the molecule, how does the IC50 read?
Its IC50 is 109 nM.

With `Cc1cc2ccccc2nc1N(Cc1ccc(F)c(C(F)(F)C2CC2)c1)S(=O)(=O)c1ccc(C(=O)O)cc1` [Example 208] as the molecule, how does the IC50 read?
Its IC50 is 9.6 nM.

How did the IC50 turn out when `Cc1c(N(Cc2cc3c(F)cc(F)cc3s2)S(=O)(=O)c2ccc(C(=O)O)cc2)ncc2ccccc12` [Example 194] was run?
Its IC50 is 1.3 nM.

With `Cc1c(N(CC2CCN(c3ccccc3)CC2)S(=O)(=O)c2ccc(C(=O)O)cc2)ncc2ccccc12` [Example 85] as the molecule, how does the IC50 read?
The IC50 was 79 nM.

With `CCOC(C)(c1ccc(CN(c2ncc3ccccc3c2C)S(=O)(=O)c2ccc(C(=O)O)cc2)cc1)C(F)(F)F` (stereo not shown) [Example 14, 4-{[[4-(1-ethoxy-2,2,2-trifluoro-1-methylethyl)benzyl](4-methylisoquinolin-3-yl)amino]sulfonyl}benzoic acid] as the molecule, how does the IC50 read?
Its IC50 is 4.7 nM.

With `Cc1cccc2c(C)c(N(Cc3ccc(OC(F)(F)F)cc3)S(=O)(=O)c3ccc(C(=O)O)cc3)ncc12` [Example 136] as the molecule, how does the IC50 read?
The IC50 was 31 nM.

For `Cc1nc2cc(CN(c3ncc4ccccc4c3C)S(=O)(=O)c3ccc(C(=O)O)cc3)ccc2s1` [Example 188], which IC50 is on record?
The IC50 was 155 nM.

For `Cc1c(N(Cc2cc3c(Cl)cccc3s2)S(=O)(=O)c2ccc(C(=O)O)cc2)ncc2ccccc12` [Example 196], which IC50 is on record?
The IC50 was 2.2 nM.

With `Cc1c(N(Cc2nc3ccccc3o2)S(=O)(=O)c2ccc(C(=O)O)cc2)ncc2ccccc12` [Example 127] as the molecule, how does the IC50 read?
Its IC50 is 195 nM.

`Cc1c(N(Cc2ccc3ccn(C)c3c2)S(=O)(=O)c2ccc(C(=O)O)cc2)ncc2ccccc12` [Example 119, 4-{[[(1-methyl-1H-indol-6-yl)methyl](4-methylisoquinolin-3-yl)amino]sulfonyl}benzoic acid] was tested. Which IC50 did it give?
Its IC50 is 92 nM.

For `Cc1c(N(Cc2cc(F)c3c(c2)CCC3)S(=O)(=O)c2ccc(C(=O)O)cc2)ncc2ccccc12` [Example 175], which IC50 is on record?
The IC50 was 4.4 nM.

`Cc1c(N(Cc2ccc3[nH]cc(Cl)c3c2)S(=O)(=O)c2ccc(C(=O)O)cc2)ncc2ccccc12` [Example 236] was tested. Which IC50 did it give?
Its IC50 is 522 nM.

How did the IC50 turn out when `Cc1c(N(Cc2ccc3c(Cl)c[nH]c3c2)S(=O)(=O)c2ccc(C(=O)O)cc2)ncc2ccccc12` [Example 121, 4-{[[(3-chloro-1H-indol-6-yl)methyl](4-methylisoquinolin-3-yl)amino]sulfonyl}benzoic acid] was run?
Its IC50 is 15 nM.

`Cc1cc2cc(F)ccc2nc1N(Cc1ccc(OC(F)(F)F)cc1)S(=O)(=O)c1ccc(C(=O)O)cc1` [Example 145] was tested. Which IC50 did it give?
Its IC50 is 91 nM.

Which IC50 does the source give for `Cc1c(N(Cc2ccc(-c3ccccc3)cn2)S(=O)(=O)c2ccc(C(=O)O)cc2)ncc2ccccc12` [Example 67] here?
Its IC50 is 67 nM.

For `CCONC(=O)c1ccc(S(=O)(=O)N(Cc2ccc(OC(F)(F)F)cc2)c2ncc3ccccc3c2C)cc1` [Example 240], which IC50 is on record?
Its IC50 is 18 nM.

With `Cc1ccc2cnc(N(Cc3ccc(OC(F)(F)F)cc3)S(=O)(=O)c3ccc(C(=O)O)cc3)c(C)c2c1` [Example 135] as the molecule, how does the IC50 read?
Its IC50 is 136 nM.

Which IC50 does the source give for `Cc1c(N(Cc2ccc(CC3CC3)cc2)S(=O)(=O)c2ccc(C(=O)O)cc2)ncc2ccccc12` [Example 24] here?
The IC50 was 4.6 nM.

For `CCOc1nc(N(Cc2ccc(OC(F)(F)F)cc2)S(=O)(=O)c2ccc(C(=O)O)cc2)c(C)c2ccccc12` [Example 228], which IC50 is on record?
Its IC50 is 7.2 nM.

`Cc1c(N(Cc2ccc3c(c2)COC3(C)C)S(=O)(=O)c2ccc(C(=O)O)cc2)ncc2ccccc12` [Example 83] was tested. Which IC50 did it give?
Its IC50 is 10 nM.

For `Cc1cc2ccc(Cl)cc2nc1N(Cc1ccc(OC(F)(F)F)cc1)S(=O)(=O)c1ccc(C(=O)O)cc1` [Example 134], which IC50 is on record?
Its IC50 is 695 nM.

Which IC50 does the source give for `Cc1c(N(Cc2ccc(C(F)(F)C3CC3)c(F)c2)S(=O)(=O)c2ccc(C(=O)O)cc2)ncc2ccccc12` [Example 203] here?
The IC50 was 1.5 nM.

`CNC(=O)c1ccc(S(=O)(=O)N(Cc2ccc(OC(F)(F)F)cc2)c2ncc3ccccc3c2C)cc1` [Example 238] was tested. Which IC50 did it give?
Its IC50 is 103 nM.

For `CC(=O)c1ccc(S(=O)(=O)N(Cc2ccc(OC(F)(F)F)cc2)c2ncc3ccccc3c2C)cc1` [Example 152, 4-acetyl-N-(4-methylisoquinolin-3-yl)-N-[4-(trifluoromethoxy)benzyl]benzenesulfonamide], which IC50 is on record?
Its IC50 is 95 nM.

— patent US8987445B2, “Sulfonamide compounds having TRPM8 antagonistic activity” (Mitsubishi Tanabe Pharma Corporation, priority 2011, dated 2015)
